Assay results: patent US20220152045A1 (priority 2012, published 2022)
Where two headings read alike, the source gives them in different places.

Experiments:
[1] = system: non-human animal (for example, a monkey); assay: Continuous intravenous administration to a non-human animal, vasostimulant; format: in vivo; conditions: continuous i.v. 1 mg/kg/h to 2 mg/kg/h for several hours (4 to 6 hours), in the neighborhood of an effective dose
Text: It can be said that this is an astonishingly excellent effect provided by the dosing regimen of the invention.

[2] = system: surgery patients at the age of 20 or older and younger than 65; conditions: in vivo
[3] = system: surgery patients at the age of 20 or older and younger than 65; conditions: in vivo; remark: listed apart in the source
[4] = system: surgery patients at the age of 65 or older; conditions: in vivo
[5] = system: surgery patients at the age of 65 or older; conditions: in vivo; remark: listed apart in the source
patients = assay: Clinical trials of the Examples taken together (85 cases of patients in total); conditions: dosing regimen of the invention, amount per kg equal to or more than in the preceding animal tests

Structure (SMILES): COC(=O)CC[C@@H]1N=C(c2ccccn2)c2cc(Br)ccc2-n2c(C)cnc21.O=S(=O)(O)c1ccccc1 [Compound B, Methyl 3-[(4S)-8-bromo-1-methyl-6-(2-pyridinyl)-4H-imidazo[1,2-a][1,4]benzodiazepin-4-yl]propanoate benzenesulfonate]
- Vasostimulant [1]: vasostimulant is observed
- Other side effects to be concerned or abnormal laboratory data [2]: not observed
- Number of test subjects who developed hypotension, adverse event ([3]; human): 3 patients
- Proportion of test subjects who developed hypotension as a side effect ([3]; human): 10%
- Average time until the patient opened eyes [3]: 13.9 min
- Average time until the patient stated the date of birth [3]: 21.5 min
- Average time until the patient were allowed to leave the surgery room [3]: 25.5 min
- Average time until the trachea was extubated [3]: 16.4 min
- Other side effects to be concerned or abnormal laboratory data [3]: not observed
- Recollection during anesthesia ([3]; 1 mg/kg): no recollection
- Salvage treatment for sedation during surgery ([3]; 1 mg/kg): without performing a salvage treatment
- Signs of awakening during the surgery ([3]; 1 mg/kg): not observed
- Completion rate of endotracheal intubation ([3]; 12 mg/kg): 100%
- Time until loss of consciousness (range of actual values) ([3]; 12 mg/kg): (48-120) sec
- Completion rate of endotracheal intubation [4]: 100%
- Other side effects to be concerned or abnormal laboratory data [4]: not observed
- Number of test subjects who developed hypotension, adverse event ([5]; human): 3 Patients
- Proportion of test subjects who developed hypotension as a side effect ([5]; human): 20%
- Average time until the patient opened eyes [5]: 10.9 min
- Average time until the patient stated the date of birth [5]: 18.5 min
- Average time until the patient were allowed to leave the surgery room [5]: 19.1 min
- Average time until the trachea was extubated [5]: 13.6 min
- Other side effects to be concerned or abnormal laboratory data [5]: not observed
- Recollection during anesthesia ([5]; 1 mg/kg): no recollection
- Salvage treatment for sedation during surgery ([5]; 1 mg/kg): without performing a salvage treatment
- Signs of awakening during the surgery ([5]; 1 mg/kg): not observed
- Completion rate of endotracheal intubation ([5]; 4 mg/kg): 100%
- Time until loss of consciousness (range of actual values) ([5]; 4 mg/kg): (70-135) sec
- Vasostimulant (patients): does not cause the vasostimulant
